Test results as given in patent US12161648B2, “Covalent targeting of E3 ligases” (The Regents of the University of California, priority 2018, dated 2024).
Blank lines part the entries; values can stand above or below the molecule they belong to.

Columns and labels:
[1] = tested on: 231MFP breast cancer cell proteomes; assay: isoTOP-ABPP proteome-wide selectivity in 231MFP proteomes in vitro; assay type: binding, human; conditions: 50 μM
RNF114 [2] = target: T1, RNF114 (Homo sapiens, UniProt Q9Y508); assay: Gel-based ABPP, competition against JNS27 labeling of pure RNF114; assay type: binding; conditions: covalent ligands 50 μM
T1 construct: Myc; FLAG; purchased Origene
Experimental: (§1) Gel-Based ABPP. Gel-based ABPP methods were performed as previously described^34,62,63,67. Recombinant pure human proteins were purchased from Origene. […] CuAAC was performed to append rhodamine-azide (1 μM final concentration) onto alkyne probe-labeled proteins. Samples were then diluted with 20 μL of 4× reducing Laemmli SDS sample loading buffer (Alfa Aesar) and heated at 90° C. for 5 min. The samples were separated on precast 4-20% TGX gels (Bio-Rad Laboratories, Inc.). Prior to scanning by ChemiDoc MP (Bio-Rad Laboratories, Inc), gels were fixed in a solution of 10% acetic acid, 30% ethanol for 2 hrs. Inhibition of target labeling was assessed by densitometry using ImageJ.
as §1, with “described^14.” for “described^34,62,63,67.”

231MFP tumor xenograft = 231MFP tumor xenograft growth in SCID mice; assay type: in vivo; conditions: 50 mg/kg ip, once per day, from day 17
Experimental: Tumor xenograft studies. Human tumor xenografts were established by transplanting cancer cells ectopically into the flank of female C.B17 severe combined immunodeficiency (SCID) mice (Taconic Farms) as previously described^66,69 In brief, cells were washed with PBS, trypsinized, and harvested in serum-containing medium. Harvested cells were washed in serum-free media and resuspended in serum-free media at a concentration of 2.0×10^4 cells/μl, and 100 μl was injected subcutaneously into the flank of each mouse. Tumors were measured with calipers. Animal experiments were conducted in accordance with the guidelines of the Institutional Animal Care and Use Committees of the University of California, Berkeley.

231MFP cells = assay: Survival and proliferation assay (Hoechst stain), 231MFP; assay type: cell-based, human; conditions: 48 h
Experimental: Survival and Proliferation Assays. Cell survival and proliferation assays were performed as previously described using Hoechst 33342 dye (Invitrogen) according to manufacturer's protocol and as previously described^62. 231MFP cells were seeded into 96-well plates (40,000 for survival and 20,000 for proliferation) in a volume of 150 μl and allowed to adhere overnight. Cells were treated with an additional 50 μL of media containing 1:250 dilution of 1000× compound stock in DMSO. After the appropriate incubation period, media was removed from each well and 100 μl of staining solution containing 10% formalin and Hoechst 33342 dye was added to each well and incubated for 15 min in the dark at room temperature. After incubation, staining solution was removed, and wells were washed with PBS before imaging.
Survival and Proliferation Assays. Cell survival and proliferation assays were performed as previously described using Hoechst 33342 dye (Invitrogen) according to manufacturer's protocol and as previously described^14. 231MFP cells were seeded into 96-well plates (40,000 for survival and 20,000 for proliferation) in a volume of 150 μl and allowed to adhere overnight. Cells were treated with an additional 50 μL of media containing 1:250 dilution of 1000× compound stock in DMSO. […]

RNF114 [3] = assay: RNF114 ubiquitination assay; assay type: biochemical, human; conditions: 50 μM, wild-type or C8A mutant RNF114
Experimental: RNF114 ubiquitination assay. Recombinant Myc-Flag-RNF114 proteins were either purified from HEK292T cells as described above or purchased from Origene (Origene Technologies Inc., TP309752). For in vitro auto-ubiquitination assay, 0.2 μg of RNF114 in 25 μL of TBS was pre-incubated with DMSO vehicle or the covalently-acting compound for 30 min at room temperature. Subsequently, 0.1 μg of UBE1 (Boston Biochem. Inc, E-305), 0.1 μg UBE2D1 (Boston Bichem. Inc, e2-615), 5 μg of Flag-ubiquitin (Boston Bichem. Inc, u-120) in a total volume of 25 μL Tris buffer containing 2 mM ATP were added to achieve a final volume of 50 μL. The mixture was incubated at 37° C. with agitation for 1.5 h. 20 μL of Laemmli's buffer was added to quench the reaction and proteins were analyzed by western blot assay.

RNF4 [4] = target: T2, RNF4 (Homo sapiens, UniProt P78317); assay: RNF4 in vitro auto-ubiquitination assay; assay type: biochemical; conditions: 100 μM pre-incubation
T2 construct: purchased Boston Biochem K-220
T2 sequence (P78317 1-190): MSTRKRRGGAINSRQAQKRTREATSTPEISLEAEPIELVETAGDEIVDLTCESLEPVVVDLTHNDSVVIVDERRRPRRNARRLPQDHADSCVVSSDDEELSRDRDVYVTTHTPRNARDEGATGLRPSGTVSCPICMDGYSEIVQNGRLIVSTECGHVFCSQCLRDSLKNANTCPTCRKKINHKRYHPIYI
Experimental: RNF4 ubiquitination assay. […] Subsequently, UBE1 (50 nM, Boston Biochem, E-305), UBE2D1 (400 nM Boston Bichem, E2-615), Flag-ubiquitin (4000 nM, Boston Biochem, U-120) and ATP (200 μM) were added in ubiquitination assay buffer bring the total volume to 30 μL. The mixture was incubated at RT for 30 min before quenching with 10 μL of 4× Laemmli's buffer. Ubiquitination activity was measured by separation on an SDS-PAGE gel and western blotting as previously described.

RNF4 [5] = target: T2, RNF4; assay: Gel-based ABPP, competition against IA-rhodamine labeling of pure RNF4; assay type: binding
Experimental: Gel-Based ABPP. Gel-based ABPP methods were performed as previously described^5,6,25,26. Pure recombinant human RNF4 was purchased from Boston Biochem (K-220). RNF4 (0.25 μg) was diluted into 50 μL of PBS and 1p L of either DMSO (vehicle) or covalently acting small molecule to achieve the desired concentration. After 30 minutes at room temperature, the samples were treated with 250 nM IA-Rhodamine (Setareh Biotech, 6222, prepared in anhydrous DMSO) for 1 h at room temperature. Samples were then diluted with 20 μL of 4× reducing Laemmli SDS sample loading buffer (Alfa Aesar) and heated at 90° C. for 5 min. The samples were separated on precast 4-20% Criterion TGX gels (Bio-Rad Laboratories, Inc.). Fluorescent imaging was performed on a ChemiDoc MP (Bio-Rad Laboratories, Inc) inhibition of target labeling was assessed by densitometry using ImageJ.

RNF4 [6] = target: T2, RNF4; assay: LC-MS/MS analysis of covalent adduct on RNF4; assay type: binding; conditions: 50 μM, 30 min, tryptic digests
Experimental: LC-MS/MS analysis of RNF4. Purified RNF4 (10 μg) was diluted into 80 μL of PBS and treated for 30 min with DMSO or compound (50 μM). […] The samples were precipitated by additional of 20 μL of 100% (w/v) TCA and combined pairwise before cooling to −80 C for one hour.

RNF114 [7] = target: T1, RNF114; assay: Gel-based ABPP, nimbolide probe labeling of pure RNF114; assay type: binding; conditions: probe 10 μM, 1 h

T1 sequence (Q9Y508 whole entry): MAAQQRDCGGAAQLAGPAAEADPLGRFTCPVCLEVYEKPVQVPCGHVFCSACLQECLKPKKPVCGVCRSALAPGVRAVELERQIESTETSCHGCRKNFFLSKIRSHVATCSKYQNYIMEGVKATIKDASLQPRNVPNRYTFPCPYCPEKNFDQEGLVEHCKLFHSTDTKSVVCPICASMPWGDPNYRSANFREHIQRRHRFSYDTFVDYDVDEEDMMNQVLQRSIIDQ

- hit from covalent ligand screen against RNF114 (RNF114 [2]): promising hit
SMILES: C=CC(=O)NCc1ccc(C(=O)Nc2sc(-c3ccccc3)c(C)c2C(=O)N2CCCCC2)cc1 [EN62]
- proteome-wide selectivity [1]: exhibited proteome-wide selectivity
- 231MFP tumor xenograft growth (231MFP tumor xenograft): attenuated
- 231MFP breast cancer cell survival (231MFP cells): impaired
- RNF114 autoubiquitination activity (RNF114 [3]): inhibited

- RNF4 autoubiquitination activity (RNF4 [4]): does not inhibit
- potency to be useful as an RNF4 recruiter (RNF4 [5]): did not show sufficient potency
- hits from covalent ligand screen against IA-rhodamine labeling of RNF4 (RNF4 [5]; covalent ligands 50 μM, 30 min pre-incubation, IA-rhodamine 250 nM 1 h): potential hits
SMILES: O=C(CCl)Nc1ccc(Oc2ccccc2)cc1 [TRH 1-23]
- inhibition of IA-rhodamine labeling of RNF4 (RNF4 [5]; confirmation of screening hits): reproducible and dose-responsive inhibition
- site-of-modification within RNF4 (RNF4 [6]): covalently modified either, but not both, of the two zinc-coordinating cysteines CI32 and CI35

- probe labeling of pure RNF114 (RNF114 [7]): reacts with pure human RNF114
SMILES: C#CCNC(=O)c1ccc(-c2occc2[C@@H]2C[C@H]3O[C@@H]4[C@@H]5OC(=O)[C@]6(C)C=CC(=O)[C@](C)([C@@H](CC(=O)OC)[C@]4(C)C3=C2C)[C@@H]56)cc1 [nimbolide probe]
